Experimental data: publication PMC11605291 (Frontiers in Pharmacology, 2024)

Key:
[1] = Metabolite profiling and identification in plasma, urine and feces (LC/RAM/MS); type: in vivo, human; set-up: key to Plasma %AUC (percentage of total plasma radioactivity) / Urine %Dose / Feces %Dose: +: No radioactive peaks were detected, but mass spectrometry peaks were detected; ND: not detectable; conditions: for Urine %Dose: pooled 0–72 h urine, total in urine 37.15%
Description: The plasma samples from six subjects were pooled individually according to the AUC method to obtain 6 plasma samples of 0–72 h ([Hop et al., 1998]). A portion of the proportionally mixed plasma sample was taken and added to a certain volume of acetonitrile (3×, v/v) for extraction, vortexed for 1 min, shaken for 10 min and then stored in a refrigerator at 4°C for 30 min, the mixture was removed and vortexed for 2 min and then centrifuged for 10 min at 10,000×g and 4°C. The residue from the extraction was firstly ultrasonically suspended using 1 mL of ultrapure water and then extracted using methanol (2×, v/v) and repeated twice. The organic solvent extracts were combined, blown dry with nitrogen and reconstituted with acetonitrile: ultrapure water (1:1), the reconstituted solution was centrifuged at 4°C and 10,000×g for 10 min, and the supernatant was used for radio-metabolite profiling.
The radioactivity in the organic solvent extract and the reconstitution solution was determined by LSC. The solid residue after extraction was dissolved by heating with 1N KOH solution and added to the scintillation solution to determine its radioactivity. All the final data were used to examine the recovery of radioactivity during plasma extraction.
The urine samples from the six subjects were mixed in the same volume percentage to obtain six 0–72 h urine samples. A portion of the proportionally mixed urine sample was centrifuged for 10 min at approximately 10,000×g and 4°C. Two samples were taken before and after centrifugation, and the radioactivity of the samples was determined by LSC, and the data obtained were used to calculate the recovery of radioactivity during the centrifugation process. A portion of the supernatant after centrifugation was used directly for radio-metabolite profiling.
The fecal samples from the six subjects were mixed with the same weight percentage to obtain 6 fecal homogenate samples of 0–168 h. A portion of the proportionally mixed fecal homogenate samples was taken and extracted by adding a volume of acetonitrile (3×, v/v), vortexed for 5 min at room temperature, sonicated for 5 min and then centrifuged for 10 min at 10,000 × g and 4°C. The residue of the extracted material was firstly sonicated and mixed using about 1 mL of ultrapure water before extracted using methanol (2×, v/v). The process was repeated twice and the organic extracts were combined, blown dry using nitrogen and then reconstituted with dimethyl sulfoxide: acetonitrile: ultrapure water (3:2:5), the reconstituted solution was centrifuged at 10,000×g at 4°C for 10 min and the supernatant was used for radio-metabolite profiling. […] LSC was used to determine the intensity of radioactivity contained in the organic solvent extract and in the reconstituted solution. The solid residue after extraction is fully combusted by an oxidative combustor, and the [^14C]carbon dioxide produced by combustion of the sample is captured with a scintillation solution to determine its radioactivity intensity. All final data were used to examine the extraction and recovery of radioactivity from fecal homogenate samples.
A high performance liquid chromatograph coupled with an online isotope detector and mass spectrometry (LC/RAM/MS) was used for the identification of radioactive metabolite profiles. The HPLC method consisted of an HPLC system (Shimadzu UFLC-20A-Lite), a chromatographic column (ACE Excel 3 C18, 150 × 4.6 mm id), mobile phase A (0.4% aqueous formic acid, pH = 3.2 adjusted with ammonia) and mobile phase B (acetonitrile) at a flow rate of 0.7 mL/min. The gradient was 0% B for the 0–5 min, 20% B from 15 min to 30 min, 22% B from 32 to 40 min, and 70%–100% B from 60 to 72 min. The column temperature was 28°C. […]

[2] = Safety and tolerability evaluation; conditions: for serious adverse events or deaths: 6 healthy Chinese males
Description: The safety of the subjects was assessed by adverse events, laboratory test results, vital signs, and 12-lead electrocardiogram (ECG). AEs were recorded from the time of administration and serious adverse events (SAE) were recorded from the time that subjects signed the informed consent. Subjects with elevated aspartate aminotransferase (AST) and/or alanine aminotransferase (ALT) levels (≥3 × ULN) combined with elevated serum total bilirubin (≥2 × ULN) or clinical jaundice in the same blood sample should be recorded as a specific adverse event.

For `C[C@H](Nc1ncnc(N)c1C#N)c1cc2ncc(Cl)n2nc1-c1ccccc1` [Amdizalisib], the “F: %Dose in feces (Figure 4)” value [1] was 1.21%, the “P: %AUC in plasma (Figure 4)” value [1] was 51.45% and the “U: %Dose in urine (Figure 4)” value [1] was “+”. The “Plasma %AUC (percentage of total plasma radioactivity)” value ([1]; AUC-pooled 0–72 h plasma, mean of 6 subjects) was 51.45 %AUC, the “Urine %Dose” value ([1]; mean of 6 subjects) was “+” and the “Urine %Dose” value ([1]; mean of 6 subjects, listed as parent drug) was “detected only by mass spectrometry”. For the same compound, the “Feces %Dose” value ([1]; pooled 0–168 h feces, mean of 6 subjects, total in feces 62.08%) was 1.21 %Dose, the “%AUC in AUC-pooled plasma” value ([1]; subject 01001) was 57.45 %AUC and the “%Dose in pooled feces” value ([1]; subject 01001) was 0.77 %Dose. The “%AUC in AUC-pooled plasma” value ([1]; subject 01002) was 65.57 %AUC, the “%Dose in pooled feces” value ([1]; subject 01002) was 0.25 %Dose and the “%AUC in AUC-pooled plasma” value ([1]; subject 01003) was 56.65 %AUC. For the same compound, the “%Dose in pooled feces” value ([1]; subject 01003) was 1.93 %Dose, the “%AUC in AUC-pooled plasma” value ([1]; subject 01004) was 59.14 %AUC and the “%Dose in pooled feces” value ([1]; subject 01004) was 1.52 %Dose. For the same compound, the “%AUC in AUC-pooled plasma” value ([1]; subject 01005) was 54.59 %AUC, the “%Dose in pooled feces” value ([1]; subject 01005) was 2.32 %Dose and the “%AUC in AUC-pooled plasma” value ([1]; subject 01006) was 15.32 %AUC. The “%Dose in pooled feces” value ([1]; subject 01006) was 0.48 %Dose, the “subjects reporting TEAEs” value ([2]; 5 of 6 subjects, single oral 30 mg/100 µCi) was 83.3% and the “serious adverse events or deaths” value [2] was “No serious adverse events or drug-related deaths occured”. The “serious adverse events or deaths” value ([2]; listed as amdizalisib) was “No subjects reported serious adverse events or adverse events leading to death”, the “severity of TEAEs” value ([2]; all TEAEs, considered study drug related) was “grade 1” and the “subjects reporting diarrhea as TEAE” value ([2]; four subjects) was 66.7%. The “number of TEAEs reported” value ([2]; throughout the study, 6 subjects) was 11 and the “subjects reporting abnormal laboratory test results” value ([2]; two subjects, shortened ECG PR, elevated low-density lipoprotein, positive urine white blood cells) was 33.3%.
